Laboratory results published in patent US20250186597A1, “TARGETED IMMUNE ACTIVATION WITH IL-18 IMMUNOCYTOKINES” (BRIGHT PEAK THERAPEUTICS AG, priority 2023, published 2025).

Legend:
[1] = tested on: NK92 cells; assay: IFN gamma secretion assay in NK92 cells (Example 10); format: cell-based, human; details: IFNγ secretion, 1 ng/ml IL-12
Method: The IFNγ-secretion stimulating activity of the unconjugated IL-18 variants and corresponding IL-18 immunocytokines was evaluated on NK92 cell line. The NK cell line NK-92 derived from a patient with lymphoma (ATCC, Cat #CRL-2407) was cultured in aMEM medium supplemented with 12.5% FCS, 12.5% horse serum (HS), 50 uM B-mercaptoEthanol, and 2 ng/ml of recombinant Human Interleukin-2 (IL-2).
On the day of experiment, cells were harvested and washed with aMEM medium without IL-2 and resuspended in medium (w/o IL-2) containing 1 ng/ml of recombinant human Interleukin-12 (SinoBiologicals, Cat #CT011-H08H). After counting, cells were seeded at 100 000 cells/well in a 384 well titer plate and incubated at 37° C./5% CO2. Sixteen 4-fold serial dilutions of IL-18 analytes were prepared in aMEM medium—1 ng/ml IL-12 and were added to the NK-92 cells. […]
(§1) After 16-20 h incubation at 37° C./5% CO2, 5 μl of supernatant were carefully transferred to a 384 microwells OPTIPlate (Perkin Elmer; Cat #6007270) and Interferon-gamma (IFNγ) levels measured using the Human IFNγ AlphaLISA Assay Kit (Perkin Elmer, Cat #AL217C). […] AlphaLisa signal was then measured on an Enspire plate reader (Perkin Elmer) using 680 and 615 nm as excitation and emission wavelengths respectively. Half maximal effective concentration (EC50) was calculated based on a variable slope, four parameter analysis using GraphPad PRISM software.

[2] = target: T1, human IL-18 Binding Protein (IL-18BP) (Homo sapiens, UniProt O95998); assay: IL-18 Binding Protein alphaLISA assay (Example 12); details: human IL-18BP
T1 sequence (O95998 31-194): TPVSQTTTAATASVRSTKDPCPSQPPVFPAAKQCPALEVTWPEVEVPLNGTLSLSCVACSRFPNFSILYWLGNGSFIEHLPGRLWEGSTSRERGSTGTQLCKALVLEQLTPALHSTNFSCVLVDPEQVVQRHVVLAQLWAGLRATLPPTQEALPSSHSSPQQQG
Method: Wild type or modified IL-18 polypeptides samples were diluted at 5.6 μM in a solution of 1× alphaLISA Immunoassay Buffer provided in the alphaLISA IFNγ Detection kit and were diluted applying 3-fold serial dilutions down to […] in 384 deep well plates. A solution of 10 ng/ml of human IL-18BP-His was prepared with 1×alphaLISA Immunoassay Buffer. IL-18/IL-18BP complex formation was performed incubating 30 μl of IL-18BP solution to IL-18 sample titrations for 1 h at 20° C. IL-18BP standard was prediluted from stock solution supplied in alphaLISA IFNγ Detection kit at 100 ng/ml with 1×alphaLISA Buffer and titration prepared from applying 2-fold serial dilutions. The following solutions were prepared: a 50 μg/ml solution of anti-IL-18BP alphaLISA Acceptor beads, a 5 nM solution of biotinylated anti-IL18BP antibody and a 80 μg/ml light-protected solution of Streptavidin Donor beads in 1×alphaLISA Immunoassay Buffer. […]
5 μl of Biotinylated anti-IL-18BP antibody were added, followed by a short centrifugation step at 150 g, and incubated for 60 minutes at 20° C. under shaking at 750 rpm. […] AlphaLisa signal was then measured on an Enspire plate reader (Perkin Elmer) using 680 and 615 nm as excitation and emission wavelengths respectively. […]

[3] = tested on: PD-1positive transduced NK-92 cells; assay: IL-18BP mediated inhibition of IFN gamma secretion in PD-1 positive transduced NK-92 cells (Example 18); format: cell-based, human
Method: To characterize the resistance of anti-PD1-IL18 immunocytokines (IC) on PD-1 positive cells, the NK-92 cell line was used to generate a PD-1 expressing cell line and furthermore, to measure the inhibition of IFN[…] release upon incubation with IL-18 variants and ICs in the presence of increasing quantities of human IL-18BP.
On the day of experiment, parental PD-1^negative and PD-1^positive transduced cells were harvested and washed with PBS 1× and resuspended in medium (w/o IL-2) containing 1 ng/ml of recombinant human Interleukin-12 (SinoBiologicals, Cat #CT011-H08H). After counting, cells were seeded at 100 000 cells/well in a 384 well culture plate and incubated at 37° C./5% CO2. When indicated, cells were preincubated with anti-PD-1 antibody LZM-009 at 17 uM during 30 min at 37° C. […]
as §1, with “microwell OptiIPlate” for “microwells OPTIPlate”, “AlphaLISA” for “AlphaLisa”, “inhibitory” for “effective”, “(IC50)” for “(EC50)”

EC50 [1]: 0.374 nM | Kd [2]: 0.411 nM | IC50 ([3]; IL-18BP-mediated inhibition of IFNγ secretion, IL-18 analyte 1 nM): 2.67 nM | PD-1^pos/PD-1^neg IC50 ratio ([3]; NK-92 cells): 1.2
Substance: SEQ ID NO: 1: Native sequence of human IL-18 (bioactive form) [reference compound]
